Reference: article PMC8952364, “Polyphenols as Inhibitors of Antibiotic Resistant Bacteria—Mechanisms Underlying Rutin Interference with Bacterial Virulence” (Pharmaceuticals, 2022)
Values after ≈ are worked out from the molar mass of the structure shown.

Columns and labels:
P. aeruginosa IBRS P001 = assay: Bacterial adhesion to HaCaT cells; format: cell-based, Pseudomonas aeruginosa
Experimental: (§1) HaCaT cells were grown until confluence in 24-well plates with an adhesive bottom. The medium was removed and DMEM without FBS containing the rutin (MIC and 0.5 MIC) was added. The samples were incubated at 37 °C for 15 min, and bacteria (P. aeruginosa IBRS P001 and MRSA IBRS MRSA 011) were added. After incubation at 37 °C for 1 h, the cells were washed three times with DMEM without FBS and lyzed with 1 mL of 1% (v/v) Tween-20 (SigmaAldrich, Germany) at 37 °C for 30 min. Afterwards, dilutions of the bacterial suspension in each well were made and seeded on Plate Count Agar plates. The number of CFU was determined after incubation at 37 °C for 18 h, and the percentage of adhered bacterial cells was calculated following the equation:% (adhesion relative to the control) = 100 × CFU (treated)/CFU (control)
(§2) With CFU (treated) representing the number of CFUs after the treatment of cells with rutin and CFU (control) representing the number of bacterial CFUs in the untreated sample. The solvent treated sample was used as the control.

[1] = system: P. aeruginosa IBRS P001 elastase production; assay: Elastase assay (Elastin-Congo red); format: cell-based, Pseudomonas aeruginosa; conditions: 0.25 mg/mL (0.5 MIC), compared to the control
Experimental: After 48 h of incubation (37 °C, 180 rpm), the mixtures were collected and centrifuged at 15,700× g for 15 min. Quantification of the elastase activity was measured at 495 nm using a Plate Reader Infinite 200 pro (MTX Lab Systems, Vienna, VA, USA). An untreated culture supernatant was used as a positive control (supplemented with the solvent). The experiment was done in triplicate.

S. infantis 1371/1 = assay: Antimicrobial microdilution assay (MIC/MBC); format: cell-based, Salmonella Infantis; conditions: Salmonella enterica, 1371/1
Method in brief: (§3)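 Polyphenols 0.0039–1 mg/mL, stocks in 30% ethanol; inoculum 0.5 McFarland diluted twenty-fold, mixed 1:10; 24 h, 37 °C. MIC = no visible growth (binocular microscope). Streptomycin positive control, ethanol negative control; triplicate.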

[2] = system: 24 h old P. aeruginosa IBRS P001 biofilms; assay: Biofilm eradication, MTT assay (cell viability); format: cell-based, Pseudomonas aeruginosa
Experimental: The impact of rutin on P. aeruginosa IBRS P001 biofilm formation was determined as previously described by estimating the metabolic activity of microbial cells using an MTT assay. […] The supernatants were then ejected and the biofilms washed with PBS. MTT reagent (200 μL, 0.5 mg/mL) was added and the plate was incubated at 37 °C in the dark for 2 h. The resulting dye was dissolved in DMSO and the absorbance was measured at 570 nm in a microtiter plate reader Multiskan™ FC Microplate Photometer, Thermo Scientific™. The inhibition percentage of biofilm cell viability was calculated:%Inhibition = [(A570control − A570sample)/A570control] × 100
(§4) The bacterial cells were incubated in TSB enriched with 2% glucose in 96-well plates (Sarstedt, Germany) with adhesive bottom at 37 °C for 24 h. After incubation, wells were washed with PBS, and rutin (MBC–4 MBC) in TSB with 2% glucose was added. Incubation continued at 37 °C for another 24 h. The planktonic cells were removed.
(§5) The assays continued as described above for the crystal violet antibiofilm assay for the measurement of biofilm mass, biofilm MTT assay for the interference with cell viability, Congo red binding assay for estimation of exopolysaccharide production, and eDNA assay.

MRSA IBRS MRSA 011 = assay: Bacterial adhesion to HaCaT cells; format: cell-based, Staphylococcus aureus
Experimental: as §1, §2

[3] = system: 24 h old P. aeruginosa IBRS P001 biofilms; assay: Biofilm eradication, eDNA assay; format: cell-based, Pseudomonas aeruginosa; conditions: MBC–4 MBC, Figure 5D
Experimental: The quantity of eDNA was determined as previously described, with some modifications. […] Subsequently, the planktonic cells were removed, and the wells were washed with PBS. TE buffer (Tris-EDTA buffer solution) was added to the wells and content was mixed vigorously by pipetting. The samples were transferred to 1.5 mL tubes and centrifuged at 10,000× g for 10 min. After removal of the supernatant, the pellet was suspended in a TE buffer by vortexing. Absorbance of the supernatant (260 nm) was measured after centrifugation at 10,000× g for 15 min. We calculated the inhibition percentage of eDNA relative to an untreated control. The solvent treated sample was used as the control.
as §4, §5

K. pneumoniae IT977 = assay: Antimicrobial microdilution assay (MIC/MBC); format: cell-based, Klebsiella pneumoniae; conditions: Klebsiella pneumoniae, IT977
Method in brief: as §3

K. pneumoniae Ni9 = assay: Antimicrobial microdilution assay (MIC/MBC); format: cell-based, Klebsiella pneumoniae; conditions: Klebsiella pneumoniae, NI9
Method in brief: as §3

[4] = system: P. aeruginosa IBRS P001 protease production; assay: Protease assay (azocasein); format: cell-based, Pseudomonas aeruginosa; conditions: 0.25 mg/mL (0.5 MIC), compared to the control
Experimental: The impact of rutin on the proteolytic activity of P. aeruginosa IBRS P001 was measured using azocasein as a substrate. […] Samples were centrifuged at 9660 g, room temperature, for 10 min (Heraeus biofuge stratos centrifuge, Thermo Electron Corporation, Waltham, MA, USA). Afterwards, the supernatant was mixed with azocasein (2%, SigmaAldrich, Germany) and incubated at 37 °C for 45 min. The reaction was stopped using 10% trichloroacetic acid and centrifuged at 9660× g, RT for 10 min. After centrifugation, the absorbance of the supernatants was measured at 440 nm and protease production in the treated sample calculated compared to the control (100% production).

[5] = subcultivation, 24 h at 37 °C, read-out: MBC

C[C@@H]1O[C@@H](OC[C@H]2O[C@@H](Oc3c(-c4ccc(O)c(O)c4)oc4cc(O)cc(O)c4c3=O)[C@H](O)[C@@H](O)[C@@H]2O)[C@H](O)[C@H](O)[C@H]1O [Rutin, rutin] was tested. Which “reduction of CFU adhered to human keratinocytes” value (“reduction of CFU adhered” below) (P. aeruginosa IBRS P001; 0.5 MIC, 0.25 mg/mL) did it give?
Its value is 25%.

And the “reduction of CFU adhered” value (P. aeruginosa IBRS P001; rutin MIC)?
Its value is 51%.

And the “reduction of elastase production” value [1]?
The value was 91%.

And the MIC (S. infantis 1371/1; 37 °C, 24 h, read-out: MIC)?
The MIC was 1000 µg/mL (≈ 1640 µM).

What about the MBC (S. infantis 1371/1; [5]) of the same molecule?
Its MBC is 1000 µg/mL (≈ 1640 µM).

What about the viability at 1000 µg/mL ([2]; Pseudomonas aeruginosa, MBC, 1 mg/mL, read-out: viability of cells within the biofilms) of the same molecule?
The viability at 1000 µg/mL was 92%.

And the “viability of cells within the biofilms” value ([2]; maximal concentration examined (4 MBC))?
Its value is 55%.

What about the inhibition at 250 µg/mL (MRSA IBRS MRSA 011; Staphylococcus aureus, MRSA, Keratinocyte, read-out: reduction of CFU adhered to human keratinocytes (inhibition)) of the same molecule?
Its inhibition at 250 µg/mL is 19%.

What about the “reduction of CFU adhered” value (MRSA IBRS MRSA 011; rutin MIC) of the same molecule?
Its value is 63%.

What about the “levels of eDNA in the biofilm matrix, in words” value [3] of the same molecule?
Its value is “significantly reduced”.

And the MIC (K. pneumoniae IT977; 37 °C, 24 h, read-out: MIC)?
The MIC was 1000 µg/mL (≈ 1640 µM).

And the MBC (K. pneumoniae IT977; [5])?
The MBC was 1000 µg/mL (≈ 1640 µM).

And the MIC (K. pneumoniae Ni9; 37 °C, 24 h, read-out: MIC)?
The MIC was 1000 µg/mL (≈ 1640 µM).

What about the MBC (K. pneumoniae Ni9; [5]) of the same molecule?
The MBC was 1000 µg/mL (≈ 1640 µM).

What about the “decrease of protease production” value [4] of the same molecule?
The value was “more than 50%”.
